ChEMBL document CHEMBL1135885, “Designing small, nonsugar activators of antithrombin using hydropathic interaction analyses” (J Med Chem, 2002)

Legend:
[1] = The second order rate constant for uncatalysed inhibition of factor Xa by antithrombin was determined for the compound at […]
[2] = The equilibrium dissociation constant was measured experimentally for the compounds interaction with antithrombin.; assay type: ADME
[3] = Equilibrium constants and K activator was determined.; assay type: ADME
[4] = Catalysed acceleration of antithrombin inhibition of factor Xa (K-uncat = 120 +/- 10 M-1.s-1)
[5] = The equilibrium dissociation constant antithrombin interaction was determined at pH 7.4; assay type: ADME
[6] = delta f max at pH 6.0; assay type: ADME
[7] = delta f max at pH 7.4; assay type: ADME

Kuncat [1] [M⁻¹ s⁻¹]	Kd [2] [µM]	K act [3] [M⁻¹ s⁻¹]	Fold_increase [4]	Kd [5] [µM]	Delta Fmax [6] [%]	Kd [1] [µM]	Delta Fmax [7] [%]	Compound
120	10.5	–	–	–	–	–	–	O=S(=O)(O)Oc1cc2c(c(OS(=O)(=O)O)c1)C[C@@H](OS(=O)(=O)O)[C@@H](c1ccc(OS(=O)(=O)O)c(OS(=O)(=O)O)c1)O2
–	–	45000	320	66	34	2	34	CO[C@H]1O[C@H](COS(=O)(=O)O)[C@@H](OC2O[C@H](C(=O)O)[C@@H](OC3O[C@H](COS(=O)(=O)O)[C@@H](O)[C@H](O)[C@H]3NS(=O)(=O)O)[C@H](O)[C@H]2O)[C@H](OS(=O)(=O)O)[C@H]1NS(=O)(=O)O (stereo partly drawn) [HEPARIN TRISACCHARIDE DEF]
